50 compounds from PubChem BioAssay AID743116 (Broad Institute, 2013) can be followed below.

Calls of active or inactive are those of the source.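 How the source made its calls: active means compounds whose dose curve reaches a melting temperature rise of about 0.39 degC within the tested concentrations; inconclusive means flat curve with moderate shift, or unreliable curve fit; inactive means the rest.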

For the first assay, the target named is Fibroblast growth factor 22 (Homo sapiens) (UniProt Q9HCT0). Description: ligand stabilization of recombinant FGF22 – biophysical, SYPRO orange melt, qPCR instrument, dry powder, dose response (AID 743116). As to conditions: Recombinant FGF22 thermal shift, SYPRO orange fluorescence.
Chain of Fibroblast growth factor 22 (Homo sapiens) (Q9HCT0 whole entry, looked up): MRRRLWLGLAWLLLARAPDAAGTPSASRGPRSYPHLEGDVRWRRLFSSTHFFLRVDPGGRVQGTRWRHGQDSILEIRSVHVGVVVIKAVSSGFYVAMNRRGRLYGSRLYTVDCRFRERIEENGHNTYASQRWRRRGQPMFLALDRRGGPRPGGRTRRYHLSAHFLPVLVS
In general, AC50 refers to the concentration giving half of the maximal activity seen. Take `Nc1ccc(C(=O)N/N=C/c2c[nH]c3ccccc23)cc1`: the AC50 is 24.3 µM. On the same count and under the same terms, then `O=C(N/N=C/c1c[nH]c2ccccc12)c1cccc(O)c1`, with 0.318 µM; and `CCc1cc(-c2[nH]ncc2-c2ccc3c(c2)OCCO3)c(O)cc1O`, with 24 µM; and `O=C(Nc1ccc(S(=O)(=O)N2CCCC2)cc1)c1ccccc1`, with 36.6 µM. On the same count and under the same terms, then `COC(=O)C[C@H]1CC[C@@H]2[C@@H](COc3ccc(NC(=O)Nc4ccc(C#N)cc4)cc3C(=O)N2C)O1`, with > 38 µM (inactive). Consider `O=C(N/N=C/c1c[nH]c2ccccc12)c1cccc(Cl)c1`, for which the concentration at half-maximal activity (AC50) was 15.5 µM. On to `Nc1cccc(-c2nc3ccc(C(=O)c4ccccc4)cc3[nH]2)c1`, for which the AC50 is 29.5 µM. On the same count and under the same terms, under `COc1cc(/C=N/NC(=O)c2cc3ccccc3[nH]2)ccc1O` stands 10.1 µM; under `CSc1ccc(/C=N/NC(=O)c2ccc3nc[nH]c3c2)cc1`, 9.97 µM; under `Cc1cc(NC(=O)Nc2ccc3c(ccn3C)c2)sn1`, 24.7 µM. Regarding `O=C(N/N=C/c1c[nH]c2ccccc12)c1cccs1`, the AC50 is 5.49 µM.

The same assay, now with this note: Recombinant FGF22 thermal shift, SYPRO orange fluorescence; at 19.5 µM (top of the series).
`Cc1[nH]c2ccccc2c1C(=O)NS(=O)(=O)Nc1ccc(Cl)cc1`: the “melting temperature shift, positive = stabilization” value (shortened to “melting temperature shift”) was “inactive”.

For the compound `CC(C)c1c(C(=O)N/N=C/c2c[nH]c3ccccc23)nnn1-c1nonc1N`, the “melting temperature shift” value is “inactive”. Consider `CC(=O)Nc1ccc(NC(=O)Nc2ccccc2)cc1`, for which the “melting temperature shift” value is “inactive”.

The same assay, now with this note: Recombinant FGF22 thermal shift, SYPRO orange fluorescence; at 38 µM (top of the series).
Consider `O=C(N/N=C/c1ccc(C(F)(F)F)cc1)c1ccc(O)cc1`, for which the “melting temperature shift” value is “inactive”.

For `CCc1cc(-c2n[nH]c(C)c2-c2ccc3c(c2)OCCO3)c(O)cc1O`, the “melting temperature shift” value was “inactive”. On the same count and under the same terms, then `O=C(Nc1ccc(Cl)cc1)N[C@@H]1CC[C@@H](CCNS(=O)(=O)c2ccccc2F)O[C@H]1CO`, with “inactive”; and `Cc1cc(C(=O)N/N=C/c2c[nH]c3ccccc23)cs1`, with “inactive”; and `Cc1ccc(S(=O)(=O)N2C[C@@H](O)COC[C@@H]3O[C@@H](CC(=O)NCc4ccc(Cl)c(Cl)c4)CC[C@H]32)cc1`, with “inactive”. Regarding `CCN1C(=O)C(CC(=O)Nc2ccc(F)cc2)N(Cc2ccc3c(c2)OCO3)C1=S` (stereo not given), the “melting temperature shift” value is “inactive”. With `CC(=O)Nc1cccc(C(=O)N/N=C/c2c[nH]c3ccccc23)c1`, the “melting temperature shift” value was “inactive”.

Consider `Cc1ccc(S(=O)(=O)N2C[C@H](O)COC[C@H]3O[C@H](CC(=O)NCc4ccc(Cl)c(Cl)c4)CC[C@@H]32)cc1`, for which the “melting temperature shift” value was “inactive”. Same read-out and setting: then `O=C(N/N=C/c1c[nH]c2ccccc12)c1ccc(O)c(O)c1`, with “inactive”. Still for that read-out and setting: then `O=C(Nc1cc(Cl)cc(Cl)c1)N[C@@H]1CC[C@@H](CCNS(=O)(=O)c2cccc(F)c2)O[C@H]1CO`, with “inactive”; and `O=C(N/N=C/c1cccc(Oc2ccccc2)c1)c1cccc(O)c1`, with “inactive”; and `O=C(NCCc1c[nH]c2ccccc12)c1ccc(Cl)cc1`, with “inactive”. Same read-out and setting: under `O=C(Nc1ccc(S(=O)(=O)N2CCCC2)cc1)c1cccs1` stands “inactive”. Turning to `O=C(Nc1ccc(S(=O)(=O)N2CCOCC2)cc1)c1ccc(F)cc1`, the “melting temperature shift” value is “inactive”.

In the case of `O=C(O)Cc1ccc(NC(=O)c2ccc(Cl)c(Cl)c2)cc1`, the “melting temperature shift” value was “inactive”. As for `O=C(C[C@H]1CC[C@@H]2[C@H](COC[C@H](O)CN2S(=O)(=O)c2cccc(Cl)c2)O1)Nc1ccccc1`, the “melting temperature shift” value was “inactive”. Same read-out and setting: then `COC(=O)C1=C(CS(=O)(=O)c2cc(OC)ccc2OC)NC(=O)NC1c1ccc(O)c(OC)c1` (stereo not given), with “inactive”; and `Cc1[nH]c2ccc(C(=O)OCC(=O)Nc3cccc(S(N)(=O)=O)c3)cc2c1C`, with “inactive”; and `CN(Cc1c(C(=O)N/N=C/c2ccc(O)cc2)nnn1-c1nonc1N)c1ccccc1`, with “inactive”.

As to `CC(=O)Nc1cccc(NC(=O)c2ccc3[nH]c(C)c(C)c3c2)c1`, the “melting temperature shift” value is “inactive”. Take `CCCNC(=O)COC(=O)c1ccccc1C(=O)N(C)C1CCCCC1`: the “melting temperature shift” value is “inactive”.

Take `CCNC(=O)C[C@@H]1CC[C@H]2[C@H](COc3ccc(NC(=O)Nc4ccc(Cl)cc4)cc3C(=O)N2C)O1`: the “melting temperature shift” value was “inactive”.

For `COc1ccc(-c2nc(-c3ccc(O)cc3O)cs2)cc1OC`, the “melting temperature shift” value is “inactive”. The same measure, in the same setting: then `Cc1ccn(-c2ccc(NC(=O)c3cccs3)cc2)n1`, with “inactive”; and `CC(=O)c1ccc(NC(=O)Nc2cccnc2)cc1`, with “inactive”; and `Clc1ccc(Nc2ccc(NCc3ccccc3)nn2)cc1`, with “inactive”.

Take `O=S1(=O)N=C(N(Cc2cccs2)c2ccc(O)cc2)c2ccccc21`: the “melting temperature shift” value is “inactive”. Turning to `CCN1C/C(=C/c2cccs2)c2nc3ccccc3c(C(=O)O)c2C1`, the “melting temperature shift” value was “inactive”. The same measure, in the same setting: then `COc1ccc(C)cc1NS(=O)(=O)c1ccc(NS(=O)(=O)c2ccc(NC(C)=O)cc2)cc1`, with “inactive”; and `Cc1ccc(OCCCC(=O)Nc2ccc(S(=O)(=O)N3CCOCC3)cc2)cc1`, with “inactive”. Turning to `COc1ccc(Nc2nc3ccc(OC)cc3s2)cc1`, the “melting temperature shift” value is “inactive”.

`COC(=O)C[C@H]1CC[C@@H]2[C@@H](COc3ccc(NC(=O)Nc4cccc(C#N)c4)cc3C(=O)N2C)O1`: the “melting temperature shift” value was “inactive”.

`O=C(Nc1nccs1)C1CC(=O)N(c2ccc(F)cc2)C1` (stereo not given): the “melting temperature shift” value is “inactive”. With `O=S(=O)(Nc1nnc(C(F)(F)F)s1)c1ccc(Cl)cc1`, the “melting temperature shift” value was “inactive”. Still for that read-out and setting: under `O=C(Nc1cc(Cl)cc(Cl)c1)N[C@@H]1CC[C@@H](CCNS(=O)(=O)c2cccc(F)c2)O[C@@H]1CO` stands “inactive”; under `CCOc1cccc(C(=O)Nc2ccc3[nH]ncc3c2)c1`, “inactive”.
